Values quoted from earlier work in patent US20060110374A1, “Method to accelerate stem cell recruitment and homing” (priority 2004, published 2006).

Experiments:
[1] = patients, intra-coronary injection followed by 2 weeks of subcutaneous administration
EPCs [2] = tested on: EPCs
EPCs [3] = tested on: EPCs; remark: listed apart in the source

Substance | coronary collateral flow [1] | numbers of EPCs (EPCs [2]; mice and rabbits) | neovascularization with bone marrow-derived cells (EPCs [2]; mice, corneal neovascularization model) | time to rise of EPC levels in the bloodstream (EPCs [3]; after administration) [h] | mobilization of EPCs into the peripheral circulation (EPCs [3]; animal models, exogenous administration)
GM-CSF: granulocyte macrophage colony stimulating factor | significant increase | Increased numbers | enhanced neovascularization |  | 
VEGF |  |  |  | ≤ 24 | promotes rapid mobilization
